Measured values as given in paper PMC11407620, “Repurposing auranofin and meclofenamic acid as energy-metabolism inhibitors and anti-cancer drugs” (PLOS ONE, 2024).
Read-outs that look alike come from different tables or passages of the source. Blank lines part the entries; values can stand above or below the compound they belong to.

Columns and labels:
[1] = tested on: HeLa, MDA-MB-231 and MDA-MB-468 cells; experiment: Energy metabolism pathway fluxes in intact cancer cells, pooled; assay type: cell-based, human; conditions: 24 h
Method: For glycolysis flux, cells (3 mg protein/mL) were incubated in KR buffer. Glycolysis was started by adding 5 mM external glucose (Sigma-Aldrich, MO, USA), and cellular samples were withdrawn after 0 and 10 min of incubation at 37°C under smooth orbital shaking. At the indicated times, the cells were rapidly mixed with 3% (w/v) ice-cold perchloric acid and centrifuged. The supernatants were neutralized with 1N KOH/100mM Tris. To rule out lactate production by glutaminolysis, cells were also incubated with 10 mM 2-deoxyglucose (Sigma-Aldrich, MO, USA). Lactate was determined by a standard method with lactate dehydrogenase (Roche, Mannheim, Germany) following the NADH formation at 340 nm.
For oxidative phosphorylation (OxPhos) flux, cells (2–5 mg protein/mL) were incubated at 37°C in air saturated KR medium plus 5 mM glucose. […] The net OxPhos rate was determined by using a Clark type electrode, as previously described and by using a high-resolution respirometer (Oroboros Instruments, Innsbruck, Austria) at 37°C. The contribution of OxPhos and glycolysis to the cellular ATP supply was determined, respectively, from the net OxPhos rate (oligomycin-sensitive respiration) multiplied by the ATP/O or P»/O2 ratio that corresponds to 2.5 or 5, and from the rate of lactate production, assuming a stoichiometry of 1 mol of ATP produced per 1 mol of lactate produced.

HeLa cells = experiment: OxPhos flux (oligomycin-sensitive respiration) in intact cells; assay type: cell-based, human; conditions: 24 h
Method: (§1) For oxidative phosphorylation (OxPhos) flux, cells (2–5 mg protein/mL) were incubated at 37°C in air saturated KR medium plus 5 mM glucose. To distinguish the oxygen consumption associated to OxPhos, the cells were incubated with 5 μM oligomycin (Sigma-Aldrich, MO, USA), a potent, specific, and permeable inhibitor of the mitochondrial ATP synthase. The net OxPhos rate was determined by using a Clark type electrode, as previously described and by using a high-resolution respirometer (Oroboros Instruments, Innsbruck, Austria) at 37°C. The contribution of OxPhos and glycolysis to the cellular ATP supply was determined, respectively, from the net OxPhos rate (oligomycin-sensitive respiration) multiplied by the ATP/O or P»/O2 ratio that corresponds to 2.5 or 5, and from the rate of lactate production, assuming a stoichiometry of 1 mol of ATP produced per 1 mol of lactate produced.

MDA-MB-231 cells = experiment: as above; assay type: cell-based, human; conditions: 24 h
Method: as §1

[2] = tested on: AS-30D hepatoma mitochondria; experiment: Oxygen consumption of isolated mitochondria; assay type: biochemical, rat; set-up: Net State 3 oxygen consumption rate: unit not given here; conditions: for Net State 3 (State 3 –pseudoState 4) oxygen consumption rate / Pseudo State 4 oxygen consumption rate / RC (State 3/ State 4), respiratory control / State 3 oxygen consumption rate / State 4 oxygen consumption rate / Net State 3 oxygen consumption rate / RC (State 3/ State 4): Hepatoma mitochondria
Method: AS-30D hepatocarcinoma cells were propagated in the peritoneal cavity of 200–250 g weight female Wistar rats by intra-peritoneal inoculation of 3 mL of a cellular suspension containing approximately 4 × 10^8 cells/mL [36]. After 5–6 days, the rats were sacrificed by cervical dislocation and AS-30D ascites liquid was extracted from peritoneal area with a sterile syringe and collected in 50 mL-plastic tubes. The hepatoma cells were harvested by centrifugation and washed once by centrifugation in KR buffer. For mitochondria isolation from AS-30D hepatoma, cells were permeabilized with digitonin (Sigma Aldrich, CA, USA) at 10–40 μg/mg cellular protein concentration.
Respiration of AS-30D, liver and heart mitochondria (1 mg protein/mL) was assayed oxygraphically with a Clark-type O2 electrode in KME (120 mM KCl, 20 mM Mops, 1 mM EGTA) buffer pH 7.2 plus 2 mM KH2PO4, and different oxidizable substrates (as indicated in Results). For state 3 respiration, 600 nmol ADP were added. Mitochondria were incubated at 37°C with Aur and MA for 30–60 s before substrates were added. At the end of each respiratory measurement, dithionite was added to get the chemical zero oxygen signal.
Isolated mitochondria (1mg protein/mL) were incubated in KME buffer (120 mM KCl, 20 mM MOPS, 1 mM EGTA) pH 7.20 plus 2 mM KH2PO4 and the indicated oxidizable substrates. For state 3 (ADP-stimulated) respiration, 300-600 nmol ADP were added. RC, respiratory control; n=3. To get the maximal reduction of molecular oxygen (zero oxygen concentration), sodium dithionite (Na2O4S2) was added at the end of each measurement.

Cervix HeLa cells = experiment: Cell proliferation, 24 h drug exposure; assay type: cell-based, human; conditions: for IC50: Cervix HeLa, 24 h, read-out: IC50 for proliferation cell rate; for effect on proliferation after shorter exposure: HeLa cells, 12 h exposure; for TI ratio (3T3/ cancer cells): IC50 3T3 / IC50 HeLa; for TI ratio (H9C2/cancer cells): IC50 H9C2 / IC50 HeLa
Method: All metastatic (breast MDA-MB231, MDA-MB468, cervix HeLa, prostate PC3, colorectal HCT116, COLO205, glioblastoma U373), low-metastatic (breast MCF-7) cancer and non-cancer (fibroblast 3T3, cardiomyocytes H9C2) cell lines (American Type Culture Collection, Rockville, MD, USA) used in this study were cultured in Petri dishes in 20 mL of Dulbecco’s Modified Eagle’s Medium (DMEM, Sigma, MO, USA) supplemented with 10% fetal bovine serum (Biowest, Mexico) and 10,000 U penicillin/streptomycin (Sigma-Aldrich, MO, USA). […] For growth and maintenance, cells were incubated in 5% CO2/95% air at 37°C and kept until 80–90% of confluence was reached. Then, cells were harvested, washed by centrifugation and resuspended in Krebs-Ringer buffer (KR, 125 mM NaCl, 5 mM KCl, 25 mM Hepes, 1 mM MgCl2, 1 mM KH2PO4, 1.4 mM CaCl2, pH 7.4) for further use. For experimentation, cancer cells (3–5 x 10^6 cells) were cultured in DMEM (with 25 mM glucose) for 24 h in the absence of drugs. Afterwards, old-medium was replaced with fresh DMEM medium (with 25 mM glucose) in the absence (control, non-treated cells) or in the presence of logarithmic concentrations of Aur and MA for 24 h more, under the same culture conditions described above. Viability of cultured cells was determined by the trypan blue exclusion assay. The protein concentration was determined by the Lowry method.
For cell proliferation in the presence of drugs, cancer cells (20 x 10^3 cells/well) were grown in 96-well plates containing DMEM (Sigma-Aldrich) plus 10% bovine fetal serum for 24 h. […] The effect of these drugs on cell proliferation was determined in 96-well plates by the MTT (3-[4,5-dimethyl-thiazol-2-yl]-2,5-diphenyltetrazolium bromide) assay. The viability of cancer cells was > 95% after treatment with drugs.

[3] = 5 mM Glutamate/0.1 mM Malate, 10 μM Aur
[4] = 5 mM Glutamate/0.1 mM Malate, 25 μM Aur
[5] = 5 mM Glutamate/0.1 mM Malate, 50 μM Aur
[6] = 5 mM Glutamate/0.1 mM Malate, 100 μM Aur
[7] = Succinate 0.5 mM + Rotenone 2 µM, 10 µM Aur
[8] = Succinate 0.5 mM + Rotenone 2 µM, 25 µM Aur
[9] = Succinate 0.5 mM + Rotenone 2 µM, 50 µM Aur
[10] = Succinate 0.5 mM + Rotenone 2 µM, 100 µM Aur
[11] = 5 mM Glutamate/0.1 mM Malate, 5 μM MA
[12] = 5 mM Glutamate/0.1 mM Malate, 10 μM MA

Compound: CC(=O)OC[C@H]1O[C@@H]([S-])[C@H](OC(C)=O)[C@@H](OC(C)=O)[C@@H]1OC(C)=O.CCP(CC)CC.[Au+] [Aur, [1-(thio-κS)-β-D-glucopyranose-2,3,4,6-tetraacetyl] (triethylphosphine)-gold]
inhibition of OxPhos and glycolysis fluxes ([1]; HeLa and MDA-MB-231 cells, Aur at IC50): 48–75%
OxPhos flux (HeLa cells; +Aur 1.7 μM): 2.6 ± 0.5 nmol O2 min^-1 mg protein^-1
OxPhos flux (MDA-MB-231 cells; +Aur 0.8 μM): 2.5 ± 0.5 nmol O2 min^-1 mg protein^-1
Net State 3 (State 3 –pseudoState 4) oxygen consumption rate [2, 3]: 91.5 ± 8 nmol O2 min^-1 mg protein^-1
Pseudo State 4 oxygen consumption rate [2, 3]: 33.5 ± 2 nmol O2 min^-1 mg protein^-1
RC (State 3/ State 4), respiratory control [2, 3]: 2.8 ± 0.5
State 3 oxygen consumption rate [2, 3]: 125 ± 9 nmol O2 min^-1 mg protein^-1
State 4 oxygen consumption rate [2, 3]: 44 ± 6 nmol O2 min^-1 mg protein^-1
Net State 3 (State 3 –pseudoState 4) oxygen consumption rate [2, 4]: 78 ± 29 nmol O2 min^-1 mg protein^-1
Pseudo State 4 oxygen consumption rate [2, 4]: 37 ± 5 nmol O2 min^-1 mg protein^-1
RC (State 3/ State 4), respiratory control [2, 4]: 2.6 ± 0.5
State 3 oxygen consumption rate [2, 4]: 114± 31 nmol O2 min^-1 mg protein^-1
State 4 oxygen consumption rate [2, 4]: 43 ± 3 nmol O2 min^-1 mg protein^-1
Net State 3 (State 3 –pseudoState 4) oxygen consumption rate [2, 5]: 80 ± 39 nmol O2 min^-1 mg protein^-1
Pseudo State 4 oxygen consumption rate [2, 5]: 52.5 ± 11 nmol O2 min^-1 mg protein^-1
RC (State 3/ State 4), respiratory control [2, 5]: 2.2 ± 0.5
State 3 oxygen consumption rate [2, 5]: 133± 46 nmol O2 min^-1 mg protein^-1
State 4 oxygen consumption rate [2, 5]: 74 ± 28 nmol O2 min^-1 mg protein^-1
Net State 3 (State 3 –pseudoState 4) oxygen consumption rate [2, 6]: 68 ± 41 nmol O2 min^-1 mg protein^-1
Pseudo State 4 oxygen consumption rate [2, 6]: 67 ± 21.5 nmol O2 min^-1 mg protein^-1
RC (State 3/ State 4), respiratory control [2, 6]: 1.5 ± 0.4
State 3 oxygen consumption rate [2, 6]: 125 ± 61 nmol O2 min^-1 mg protein^-1
State 4 oxygen consumption rate [2, 6]: 79 ± 30 nmol O2 min^-1 mg protein^-1
Net State 3 oxygen consumption rate [2, 7]: 63 ± 13
Pseudo State 4 oxygen consumption rate [2, 7]: 80 ± 10
RC (State 3/ State 4) [2, 7]: 1.9 ± 0.5
State 3 oxygen consumption rate [2, 7]: 143 ± 18
State 4 oxygen consumption rate [2, 7]: 73 ± 7.5
Net State 3 oxygen consumption rate [2, 8]: 56.5 ± 21
Pseudo State 4 oxygen consumption rate [2, 8]: 90 ± 31
RC (State 3/ State 4) [2, 8]: 1.7 ± 0.1
State 3 oxygen consumption rate [2, 8]: 147± 23
State 4 oxygen consumption rate [2, 8]: 84 ± 15
Net State 3 oxygen consumption rate [2, 9]: 58.3 ± 63
Pseudo State 4 oxygen consumption rate [2, 9]: 83 ± 23
RC (State 3/ State 4) [2, 9]: 1.9 ± 0.3
State 3 oxygen consumption rate [2, 9]: 141.5± 65
State 4 oxygen consumption rate [2, 9]: 70 ± 28
Net State 3 oxygen consumption rate [2, 10]: 26 ± 46
Pseudo State 4 oxygen consumption rate [2, 10]: 82 ± 34
RC (State 3/ State 4) [2, 10]: 1.8 ± 0.4
State 3 oxygen consumption rate [2, 10]: 104 ± 24
State 4 oxygen consumption rate [2, 10]: 56.5 ± 7
increase of state 4 respiration rates (times) ([2]; hepatoma mitochondria, GM): 2.3–2.4 times
IC50 (Cervix HeLa cells): 1.7 ± 0.4 µM
effect on proliferation after shorter exposure (Cervix HeLa cells): < 15%
TI ratio (3T3/ cancer cells) (Cervix HeLa cells): 25
TI ratio (H9C2/cancer cells) (Cervix HeLa cells): 46

IC50 (Cervix HeLa cells; Homo sapiens): 6 ± 3 µM
Compound: Cc1ccc(Cl)c(Nc2ccccc2C(=O)O)c1Cl [MA, Meclofenamic acid]
inhibition of OxPhos flux ([1]; MA 6–50 μM (Table 2)): 31–66%
OxPhos flux (HeLa cells; +MA 6 μM): 1.1 ± 0.3 nmol O2 min^-1 mg protein^-1
OxPhos flux (MDA-MB-231 cells; +MA 50 μM): 3.1 ± 2 nmol O2 min^-1 mg protein^-1
Net State 3 oxygen consumption rate [2, 11]: 26 ± 13
Pseudo State 4 oxygen consumption rate [2, 11]: 19 ± 4 (3)
RC (State 3/ State 4) [2, 11]: 1 (3)
State 3 oxygen consumption rate [2, 11]: 45 ± 10 (3)
State 4 oxygen consumption rate [2, 11]: 45 ± 10 (3)
Net State 3 oxygen consumption rate [2, 12]: 0
RC (State 3/ State 4) [2, 12]: 1 (3)
State 3 oxygen consumption rate [2, 12]: 36 ± 7 (3)
State 4 oxygen consumption rate [2, 12]: 36 ± 7 (3)
Pseudo State 4 oxygen consumption rate ([2]; 5 mM Glutamate/0.1 mM Malate, 10 μM MA, in nmol O2/min/mg protein): 45 ± 15 (3)
effect on proliferation after shorter exposure (Cervix HeLa cells): < 15%
TI ratio (3T3/ cancer cells) (Cervix HeLa cells): 17
TI ratio (H9C2/cancer cells) (Cervix HeLa cells): 17
